In patent US7342012B2, “Inhibitors of αLβ2 mediated cell adhesion” (Mitsubishi Tanabe Pharma Corporation, priority 1999, dated 2008):

melting point	Compound
51 °C	COC(=O)c1ccc(CC23CCCCN2C(=O)N(c2cc(Cl)cc(Cl)c2)C3=O)cc1 (centres unmarked) [Example 155, 6-(4-Methoxycarbonylbenzyl)-8-(3,5-dichlorophenyl)-1,8-diazabicyclo[4.3.0]nonane-7,9-dione]
104.9 °C	CS(=O)(=O)NCC(=O)N[C@@H]1CN2C(=O)N(c3cc(Cl)nc(Cl)c3)C(=O)[C@@]2(Cc2ccc(OC(F)(F)F)cc2)C1 [Example 253, (5R, 7S)-5-[4-(Trifluoromethoxy)benzyl]-3-(2,6-dichloro-4-pyridyl)-7-[(methansulfonylaminoacetyl)amino]-1,3-diazabicyclo[3.3.0]octane-2,4-dione]
